Reference: PMC3375340 (Journal of Medicinal Chemistry, 2012)
Values after ≈ are worked out from the molar mass of the structure shown.

Columns and labels:
[1] = test system: M. tuberculosis H37Rv INHr; assay: microbe, parasite or virus in culture; format: cell-based; conditions: Mycobacterium tuberculosis
[2] = test system: M. tuberculosis H37Rv RFPr; assay: microbe, parasite or virus in culture; format: cell-based; conditions: Mycobacterium tuberculosis

CCCCCC[C@H](CN1CCC(COc2cccc(C(=NOC)c3ccc(Cl)cc3)c2)CC1)OC(N)=O [(R)-13, (R)-1-(4-((3-((4-Chlorophenyl)(methoxyimino)methyl)phenoxy)methyl)piperidin-1-yl)octan-2-yl carbamate] gave an MIC [1] of 1.52 µg/mL (≈ 2.87 µM) and an MIC [2] of 1.51 µg/mL (≈ 2.85 µM).
